From ChEMBL document CHEMBL5678818, “Discovery of potent SOS1 inhibitors that block RAS activation via disruption of the RAS-SOS1 interaction” (Proc Natl Acad Sci U S A, 2019)

Legend:
[1] = target: T1, Cytoplasmic tyrosine-protein kinase BMX (Homo sapiens) (UniProt P51813); experiment: Inhibition of BMX (unknown origin) assessed as residual activity at 100 nM by KINOMEscan analysis relative to control
T1 sequence (whole entry): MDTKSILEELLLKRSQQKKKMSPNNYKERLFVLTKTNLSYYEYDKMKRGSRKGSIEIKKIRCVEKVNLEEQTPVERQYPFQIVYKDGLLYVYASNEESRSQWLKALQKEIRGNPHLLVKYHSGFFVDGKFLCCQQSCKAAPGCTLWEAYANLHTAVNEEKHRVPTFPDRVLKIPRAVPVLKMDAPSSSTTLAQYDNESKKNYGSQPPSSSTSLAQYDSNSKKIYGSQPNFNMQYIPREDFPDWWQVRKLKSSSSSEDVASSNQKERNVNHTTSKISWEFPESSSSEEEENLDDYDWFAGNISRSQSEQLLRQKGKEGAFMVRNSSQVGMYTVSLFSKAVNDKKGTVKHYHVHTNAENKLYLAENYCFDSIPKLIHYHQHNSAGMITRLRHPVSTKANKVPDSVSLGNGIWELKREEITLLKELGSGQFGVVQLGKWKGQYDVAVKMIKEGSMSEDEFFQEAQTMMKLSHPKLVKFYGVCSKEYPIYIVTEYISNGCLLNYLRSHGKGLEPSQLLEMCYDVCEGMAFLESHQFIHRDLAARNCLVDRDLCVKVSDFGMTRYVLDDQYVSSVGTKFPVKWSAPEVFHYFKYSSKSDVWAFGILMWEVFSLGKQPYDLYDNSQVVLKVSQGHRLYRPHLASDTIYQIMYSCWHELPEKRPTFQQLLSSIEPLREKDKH

[2] = target: Focal adhesion kinase 1 (Homo sapiens) (UniProt Q05397); experiment: Inhibition of FAK (unknown origin) assessed as residual activity at 100 nM by KINOMEscan analysis relative to control
Chain of Focal adhesion kinase 1 (Homo sapiens) (Q05397 2-1052 limits assumed): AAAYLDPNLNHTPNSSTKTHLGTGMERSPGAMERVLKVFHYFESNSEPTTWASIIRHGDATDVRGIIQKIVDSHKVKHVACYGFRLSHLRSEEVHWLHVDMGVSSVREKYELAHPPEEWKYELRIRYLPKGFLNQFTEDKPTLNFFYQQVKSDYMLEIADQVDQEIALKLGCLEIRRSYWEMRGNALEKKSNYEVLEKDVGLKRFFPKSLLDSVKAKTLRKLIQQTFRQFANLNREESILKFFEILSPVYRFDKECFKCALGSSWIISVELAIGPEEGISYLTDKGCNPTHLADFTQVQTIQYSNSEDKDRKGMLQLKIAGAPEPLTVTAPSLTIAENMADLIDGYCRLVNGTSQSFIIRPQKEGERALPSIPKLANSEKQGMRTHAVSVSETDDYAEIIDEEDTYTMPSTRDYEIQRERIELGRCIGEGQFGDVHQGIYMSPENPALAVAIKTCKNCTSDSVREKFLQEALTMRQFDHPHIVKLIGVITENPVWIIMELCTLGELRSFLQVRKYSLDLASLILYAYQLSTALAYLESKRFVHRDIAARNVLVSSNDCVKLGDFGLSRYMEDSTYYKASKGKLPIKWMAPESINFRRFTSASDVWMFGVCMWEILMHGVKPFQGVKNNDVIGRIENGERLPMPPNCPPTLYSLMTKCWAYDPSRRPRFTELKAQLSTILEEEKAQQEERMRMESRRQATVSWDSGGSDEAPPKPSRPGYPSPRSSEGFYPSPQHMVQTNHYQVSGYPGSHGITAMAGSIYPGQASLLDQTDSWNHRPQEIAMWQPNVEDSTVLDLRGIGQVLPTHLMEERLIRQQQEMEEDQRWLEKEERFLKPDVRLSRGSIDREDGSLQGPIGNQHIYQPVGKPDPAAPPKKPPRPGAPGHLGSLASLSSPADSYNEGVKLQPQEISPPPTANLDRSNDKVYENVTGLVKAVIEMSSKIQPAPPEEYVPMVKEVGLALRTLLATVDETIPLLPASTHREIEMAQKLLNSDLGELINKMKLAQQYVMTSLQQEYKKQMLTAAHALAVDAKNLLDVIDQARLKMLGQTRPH

[3] = target: Mitogen-activated protein kinase 7 (Homo sapiens) (UniProt Q13164); experiment: Inhibition of ERK5 (unknown origin) assessed as residual activity at 100 nM by KINOMEscan analysis relative to control
[4] = target: TGF-beta receptor type-2 (Homo sapiens) (UniProt P37173); experiment: Inhibition of TGFBR2 (unknown origin) assessed as residual activity at 100 nM by KINOMEscan analysis relative to control
Chain of TGF-beta receptor type-2 (Homo sapiens) (P37173 whole entry, canonical isoform): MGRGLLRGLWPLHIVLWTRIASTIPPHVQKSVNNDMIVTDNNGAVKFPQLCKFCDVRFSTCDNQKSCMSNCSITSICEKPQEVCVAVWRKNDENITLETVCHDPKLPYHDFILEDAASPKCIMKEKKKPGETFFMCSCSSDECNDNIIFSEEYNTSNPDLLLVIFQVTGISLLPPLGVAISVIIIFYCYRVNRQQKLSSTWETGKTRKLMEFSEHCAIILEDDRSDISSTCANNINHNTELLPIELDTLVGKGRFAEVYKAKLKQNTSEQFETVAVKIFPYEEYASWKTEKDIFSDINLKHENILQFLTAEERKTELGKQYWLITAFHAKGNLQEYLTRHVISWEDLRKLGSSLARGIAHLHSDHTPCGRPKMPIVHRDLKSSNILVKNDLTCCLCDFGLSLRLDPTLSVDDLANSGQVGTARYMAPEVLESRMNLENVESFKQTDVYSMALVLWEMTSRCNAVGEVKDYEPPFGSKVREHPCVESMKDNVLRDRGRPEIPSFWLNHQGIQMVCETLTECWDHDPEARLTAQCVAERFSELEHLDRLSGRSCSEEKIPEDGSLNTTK

[5] = tested on: Phosphatidylinositol 4,5-bisphosphate 3-kinase catalytic subunit alpha isoform (Homo sapiens), P42336 [C420R]; experiment: Inhibition of PIK3CA C420R mutant (unknown origin) assessed as residual activity at 100 nM by KINOMEscan analysis relative to control
Chain of Phosphatidylinositol 4,5-bisphosphate 3-kinase catalytic subunit alpha isoform (Homo sapiens), P42336 [C420R] (P42336 whole entry C420R, canonical isoform): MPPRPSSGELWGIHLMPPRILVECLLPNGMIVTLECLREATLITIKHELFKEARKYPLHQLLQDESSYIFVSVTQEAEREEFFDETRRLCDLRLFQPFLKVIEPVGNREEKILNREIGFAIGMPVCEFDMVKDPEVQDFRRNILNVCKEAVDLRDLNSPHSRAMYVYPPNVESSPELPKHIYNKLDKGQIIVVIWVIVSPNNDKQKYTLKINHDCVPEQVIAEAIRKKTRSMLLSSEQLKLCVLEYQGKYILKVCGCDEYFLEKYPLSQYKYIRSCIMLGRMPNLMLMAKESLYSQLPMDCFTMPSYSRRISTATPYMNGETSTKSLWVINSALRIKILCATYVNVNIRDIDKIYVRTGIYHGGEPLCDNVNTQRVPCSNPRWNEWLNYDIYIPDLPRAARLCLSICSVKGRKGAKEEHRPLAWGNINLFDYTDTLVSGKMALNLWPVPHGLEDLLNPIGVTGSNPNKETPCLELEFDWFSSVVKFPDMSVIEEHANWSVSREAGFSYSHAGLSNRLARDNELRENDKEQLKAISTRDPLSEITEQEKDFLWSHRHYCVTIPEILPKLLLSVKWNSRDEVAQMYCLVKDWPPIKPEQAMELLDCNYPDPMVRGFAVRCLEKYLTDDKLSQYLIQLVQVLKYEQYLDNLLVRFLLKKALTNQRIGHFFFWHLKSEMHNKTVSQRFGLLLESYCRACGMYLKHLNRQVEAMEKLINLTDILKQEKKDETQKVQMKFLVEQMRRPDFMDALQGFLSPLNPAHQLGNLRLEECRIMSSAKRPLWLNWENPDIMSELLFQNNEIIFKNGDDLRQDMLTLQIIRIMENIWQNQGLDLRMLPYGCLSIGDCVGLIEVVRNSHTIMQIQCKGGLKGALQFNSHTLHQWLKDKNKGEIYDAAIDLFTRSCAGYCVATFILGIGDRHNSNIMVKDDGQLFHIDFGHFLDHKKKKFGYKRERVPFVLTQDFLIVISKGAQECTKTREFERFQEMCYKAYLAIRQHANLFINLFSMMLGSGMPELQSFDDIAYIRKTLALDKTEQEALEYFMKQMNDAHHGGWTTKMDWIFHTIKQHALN

[6] = tested on: Phosphatidylinositol 4,5-bisphosphate 3-kinase catalytic subunit alpha isoform (Homo sapiens), P42336 [E545K]; experiment: Inhibition of PIK3CA E545K mutant (unknown origin) assessed as residual activity at 100 nM by KINOMEscan analysis relative to control
Chain of Phosphatidylinositol 4,5-bisphosphate 3-kinase catalytic subunit alpha isoform (Homo sapiens), P42336 [E545K] (P42336 whole entry E545K, canonical isoform): as the sequence (P42336 whole entry C420R, canonical isoform) above, with R420C, E545K counted along it

[7] = target: T2, Serine/threonine-protein kinase RIO1 (Homo sapiens) (UniProt Q9BRS2); experiment: Inhibition of RIOK1 (unknown origin) assessed as residual activity at 100 nM by KINOMEscan analysis relative to control
T2 sequence (whole entry): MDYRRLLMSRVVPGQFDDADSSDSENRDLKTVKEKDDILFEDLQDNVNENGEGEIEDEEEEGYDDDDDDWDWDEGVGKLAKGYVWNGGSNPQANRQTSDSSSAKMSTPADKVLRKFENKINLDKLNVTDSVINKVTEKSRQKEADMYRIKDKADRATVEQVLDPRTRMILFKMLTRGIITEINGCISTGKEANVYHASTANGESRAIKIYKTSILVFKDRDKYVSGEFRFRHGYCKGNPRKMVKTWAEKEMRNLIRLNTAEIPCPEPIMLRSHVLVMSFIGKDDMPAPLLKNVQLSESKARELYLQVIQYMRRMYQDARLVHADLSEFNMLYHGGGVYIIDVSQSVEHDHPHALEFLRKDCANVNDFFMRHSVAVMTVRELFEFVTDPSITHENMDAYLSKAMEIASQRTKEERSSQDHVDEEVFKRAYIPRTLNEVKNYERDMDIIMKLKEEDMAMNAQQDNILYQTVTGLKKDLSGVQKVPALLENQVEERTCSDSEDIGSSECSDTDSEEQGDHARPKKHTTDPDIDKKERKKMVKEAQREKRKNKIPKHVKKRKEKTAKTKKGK

[8] = tested on: Epidermal growth factor receptor (Homo sapiens), P00533 [UNDEFINED MUTATION]; experiment: Inhibition of EGFR L747-E749del/A750P mutant (unknown origin) assessed as residual activity at 100 nM by KINOMEscan analysis relative to control
[9] = target: BMP-2-inducible protein kinase (Homo sapiens) (UniProt Q9NSY1); experiment: Inhibition of BIKE (unknown origin) assessed as residual activity at 100 nM by KINOMEscan analysis relative to control
Chain of BMP-2-inducible protein kinase (Homo sapiens) (Q9NSY1 whole entry, looked up): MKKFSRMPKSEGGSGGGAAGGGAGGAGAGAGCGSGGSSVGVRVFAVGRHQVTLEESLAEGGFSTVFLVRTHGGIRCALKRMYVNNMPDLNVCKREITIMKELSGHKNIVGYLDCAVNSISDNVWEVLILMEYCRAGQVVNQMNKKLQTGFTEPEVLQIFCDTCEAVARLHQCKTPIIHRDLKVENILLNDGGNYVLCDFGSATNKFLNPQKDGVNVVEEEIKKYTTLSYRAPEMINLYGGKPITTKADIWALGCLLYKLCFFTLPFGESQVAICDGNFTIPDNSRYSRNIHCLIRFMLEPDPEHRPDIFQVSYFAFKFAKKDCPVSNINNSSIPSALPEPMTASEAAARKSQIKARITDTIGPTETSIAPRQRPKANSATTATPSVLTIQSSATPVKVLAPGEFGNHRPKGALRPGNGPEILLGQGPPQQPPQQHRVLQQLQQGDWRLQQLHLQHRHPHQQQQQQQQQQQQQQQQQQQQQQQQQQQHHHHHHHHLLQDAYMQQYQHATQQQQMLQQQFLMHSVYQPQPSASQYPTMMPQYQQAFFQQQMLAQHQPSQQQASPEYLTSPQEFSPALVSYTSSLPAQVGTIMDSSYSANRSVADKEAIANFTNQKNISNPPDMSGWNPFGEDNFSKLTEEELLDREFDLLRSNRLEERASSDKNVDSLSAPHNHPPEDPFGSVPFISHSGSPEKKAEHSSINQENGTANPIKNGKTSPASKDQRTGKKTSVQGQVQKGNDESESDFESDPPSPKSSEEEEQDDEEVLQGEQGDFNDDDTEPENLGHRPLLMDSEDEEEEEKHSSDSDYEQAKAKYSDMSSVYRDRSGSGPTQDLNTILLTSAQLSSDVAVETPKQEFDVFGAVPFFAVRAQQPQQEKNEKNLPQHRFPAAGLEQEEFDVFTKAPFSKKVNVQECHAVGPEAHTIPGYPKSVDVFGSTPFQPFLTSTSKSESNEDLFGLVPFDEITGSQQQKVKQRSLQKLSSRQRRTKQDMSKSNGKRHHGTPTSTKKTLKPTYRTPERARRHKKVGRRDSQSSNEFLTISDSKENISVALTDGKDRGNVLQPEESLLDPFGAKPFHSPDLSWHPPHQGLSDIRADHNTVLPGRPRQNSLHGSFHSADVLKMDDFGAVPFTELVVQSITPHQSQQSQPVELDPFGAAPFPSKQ

[10] = target: Serine/threonine-protein kinase 26 (Homo sapiens) (UniProt Q9P289); experiment: Inhibition of MST4 (unknown origin) assessed as residual activity at 100 nM by KINOMEscan analysis relative to control
[11] = tested on: Mast/stem cell growth factor receptor Kit (Homo sapiens), P10721 [D816V]; experiment: Inhibition of KIT D816V mutant (unknown origin) assessed as residual activity at 100 nM by KINOMEscan analysis relative to control
Chain of Mast/stem cell growth factor receptor Kit (Homo sapiens), P10721 [D816V] (P10721 whole entry D816V): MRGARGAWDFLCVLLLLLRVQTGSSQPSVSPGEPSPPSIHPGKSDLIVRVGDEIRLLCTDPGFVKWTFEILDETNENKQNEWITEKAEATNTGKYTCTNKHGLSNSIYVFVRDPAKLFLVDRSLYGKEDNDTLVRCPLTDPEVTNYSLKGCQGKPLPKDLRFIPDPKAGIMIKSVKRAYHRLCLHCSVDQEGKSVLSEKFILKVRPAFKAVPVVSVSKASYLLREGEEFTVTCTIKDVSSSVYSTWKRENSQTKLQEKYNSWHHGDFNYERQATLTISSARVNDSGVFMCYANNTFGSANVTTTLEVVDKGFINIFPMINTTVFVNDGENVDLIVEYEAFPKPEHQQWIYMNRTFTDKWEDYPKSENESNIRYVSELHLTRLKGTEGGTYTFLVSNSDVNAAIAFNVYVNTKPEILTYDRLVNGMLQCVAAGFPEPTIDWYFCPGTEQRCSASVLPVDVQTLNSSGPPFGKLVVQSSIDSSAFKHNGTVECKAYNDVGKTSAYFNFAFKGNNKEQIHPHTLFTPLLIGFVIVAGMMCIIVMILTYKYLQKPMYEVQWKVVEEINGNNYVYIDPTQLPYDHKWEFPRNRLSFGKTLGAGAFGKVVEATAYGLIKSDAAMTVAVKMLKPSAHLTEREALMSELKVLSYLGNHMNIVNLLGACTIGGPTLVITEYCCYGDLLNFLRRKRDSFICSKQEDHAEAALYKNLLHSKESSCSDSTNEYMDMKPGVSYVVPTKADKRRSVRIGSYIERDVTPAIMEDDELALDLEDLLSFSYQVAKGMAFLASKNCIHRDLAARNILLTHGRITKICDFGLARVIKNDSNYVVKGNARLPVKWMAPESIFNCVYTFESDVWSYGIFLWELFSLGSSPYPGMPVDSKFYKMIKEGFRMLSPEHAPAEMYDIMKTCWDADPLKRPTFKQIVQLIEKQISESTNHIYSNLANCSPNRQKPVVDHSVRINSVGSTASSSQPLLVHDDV

[12] = target: T3, MAP kinase-activated protein kinase 5 (Homo sapiens) (UniProt Q8IW41); experiment: Inhibition of MAPKAPK5 (unknown origin) assessed as residual activity at 100 nM by KINOMEscan analysis relative to control
T3 sequence (whole entry): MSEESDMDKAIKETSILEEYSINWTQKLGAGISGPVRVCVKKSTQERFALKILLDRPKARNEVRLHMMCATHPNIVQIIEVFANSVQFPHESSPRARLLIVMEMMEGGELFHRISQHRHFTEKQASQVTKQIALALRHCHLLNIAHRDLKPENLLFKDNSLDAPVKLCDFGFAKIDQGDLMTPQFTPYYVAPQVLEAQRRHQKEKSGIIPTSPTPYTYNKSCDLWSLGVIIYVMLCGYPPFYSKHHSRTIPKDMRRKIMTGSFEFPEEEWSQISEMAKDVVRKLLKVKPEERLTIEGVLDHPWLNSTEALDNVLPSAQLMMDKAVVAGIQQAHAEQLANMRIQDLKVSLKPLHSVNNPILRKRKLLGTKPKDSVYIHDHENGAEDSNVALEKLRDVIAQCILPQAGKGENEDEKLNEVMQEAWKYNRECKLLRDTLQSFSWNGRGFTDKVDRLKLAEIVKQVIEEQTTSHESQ

[13] = target: Casein kinase I isoform alpha (Homo sapiens) (UniProt P48729); experiment: Inhibition of CSNK1A1 (unknown origin) assessed as residual activity at 100 nM by KINOMEscan analysis relative to control
[14] = target: Cyclin-dependent kinase 11B (Homo sapiens) (UniProt P21127); experiment: Inhibition of CDC2L1 (unknown origin) assessed as residual activity at 100 nM by KINOMEscan analysis relative to control

In the case of COc1cc2ncnc(N[C@H](C)c3cccc4ccccc34)c2cc1OC, the Activity [1] is reported as 79%, the Activity [2] is reported as 100% and the Activity [3] is reported as 84%. It also gave an Activity [4] of 93%, an Activity [5] of 90% and an Activity [6] of 75%. For the same compound, the Activity [7] was 58%, the Activity [8] was 92% and the Activity [9] was 93%. For the same compound, the Activity [10] was 88%, the Activity [11] was 73% and the Activity [12] was 94%. For the same compound, the Activity [13] was 93% and the Activity [14] was 82%.
